Experimental data as given in patent US20100129290A1, “SMART CONTRAST AGENT AND DETECTION METHOD FOR DETECTING TRANSITION METAL IONS” (I.S.T. corporation, priority 2008, published 2010).
Where no end group is shown, it is not given here. The star is where a group is joined. dabcyl = dabcyl quencher on the Lys side chain, CN(C)c1ccc(/N=N/c2ccc(C(=O)*)cc2)cc1; K(FAM) = lysine with FAM attached to its side chain

Assays:
[1] = 1H longitudinal relaxivity (NMRD); assay type: physicochemical; conditions: salt only, 50 mM NEM, pH=7.0, 20 MHz
Procedure: Smart contrast agents with larger relaxivity values imply lower MRI detection limits for the target species and are advantageous over contrast agents with lower relaxivity values.
The incubation was conducted in the dark, at room temperature, and lasted for 3 hours. The longitudinal relaxivity was measured at field strengths between 0.01 MHz to 20 MHz. […] The underlining mechanisms responsible for the observed behavior have not been well characterized to date, but likely contain contributions from several factors including gadolinium-copper ion exchange, alterations in peptide solubility, peptide structural rearrangements, remaining synthesis impurities, and buffer interactions with both copper and gadolinium ions.

[2] = test system: Aβ accumulation; conditions: transgenic mice; cited from earlier work
[3] = test system: endogenous β-amyloid peptides; conditions: cerebrospinal fluid; read-out: EC50 for conversion of endogenous β-amyloid peptides into insoluble aggregates; cited from earlier work
[4] = Fluorescence (FRET) titration with copper(II) ions; assay type: binding; conditions: for effect of the mutation on copper binding: mutant versus P1P
[5] = Fluorescence (FRET) titration with gadolinium(III) ions; assay type: binding; conditions: for Gd^+3 binding, effect on FRET activity: 10 μM peptide, pH dependence
[6] = Fluorescence (FRET) titration with magnesium(II) ions; assay type: binding
[7] = Fluorescence (FRET) titration with calcium(II) ions; assay type: binding
[8] = Fluorescence (FRET) titration with zinc(II) ions; assay type: binding; conditions: for effect of the mutation on zinc binding: mutant versus P1P

Compound	effect of the mutation on copper binding [4]	Gd^+3 binding, effect on FRET activity [5]	binding with Mg^+2 [6]	binding with Ca^+2 [7]	effect of the mutation on zinc binding [8]	also measured
O=S(=O)([O-])[O-].[Cu+2] [CuSO4]						relaxivity [1]: 0.4 mM⁻¹ s⁻¹
[Cl][Gd]([Cl])[Cl] [GdCl3]						relaxivity [1]: 5.1 mM⁻¹ s⁻¹
Oc1c(I)cc(Cl)c2cccnc12 [clioquinol]						inhibition of Aβ accumulation [2]: significant inhibition of Aβ accumulation
[Zn+2] [zinc ions]						EC50 [3]: 120 to 140 µM
K(FAM)PAGGGWGQK(dabcyl) ({K(FAM)}-PAGGGWGQK(dabcyl)) [P17, mutant version of P1P, histidine to alanine]	most critical	marked increase in Gd^+3 binding with increasing pH	No binding	No binding	most critical	
K(FAM)PHGGGAGQK(dabcyl) ({K(FAM)}-PHGGGAGQK(dabcyl)) [P16, mutant version of P1P, tryptophan to alanine]	significant effect	marked increase in Gd^+3 binding with increasing pH	No binding	No binding	significant effect	
K(FAM)PHGGGWGAK(dabcyl) ({K(FAM)}-PHGGGWGAK(dabcyl)) [P18, mutant version of P1P, glutamine to alanine]	either had no effect, or even increased the peptide binding strength	marked increase in Gd^+3 binding with increasing pH	No binding	No binding	either had no effect, or even increased the peptide binding strength	effect of the mutation on binding affinity for copper ([4]; pH ≦7): little effect; effect of the mutation on binding activity with copper ([4]; pH=7.6): increase the binding activity; effect of the mutation on affinity of Gd^+3 ions ([5]; versus base P1P peptide): reduce the affinity; effect of the mutation on binding affinity for zinc ([8]; pH ≦7): little effect; effect of the mutation on binding activity with zinc ([8]; pH=7.6): increase the binding activity
